Experiments:
[1] = target: CprS sensor domain (CprSSD, residues 28–163); assay: Microscale thermophoresis (MST), CprS sensor domain; format: binding, P. aeruginosa; conditions: 100 nM His-tag labelled CprSSD (residues 28–163), 16 doubling dilutions from 500 μM peptide, PBST buffer, 25°C 30 min, Monolith NT.115, repeated three times, read-out: Kd (CprSSD + LL-37)
Procedure: (§1) The E. coli BL21 (DE3) strains harboring pET22b-cprS and pET22b-cprR were cultured at 37°C in LB medium and suppled with 0.4 mM IPTG as the OD600 reached to 0.8. The cultures were incubated at 16°C for an additional 14 h and the cells were collected and resuspended in buffer A (20 mM tris-HCl (pH 8.0), 150 mM NaCl). The cells were lysed by ultrasound and centrifuged at 15, 000 rpm for 20 min at 4°C. Then the supernatant was applied to Ni-agarose resins and eluted with buffer containing 300 mM imidazole. As for full-length CprS, the supernatant needed to be extracted by 2% ELUGENT Detergent and flow 0.02% DDM for elution. The target proteins were further purified via AKTA purifier using buffer A and concentrated to 12 mg/mL.
(§2) The 100 nM CprS with His-tag was labeled with Monolith His-Tag Labelling Kit RED-tris-NTA 2nd Generation Kit and the cationic peptides used in this work were diluted with PBST buffer gradient from 0.5 mM [34]. The proteins and cationic peptide dilutions were mixed and incubated at 25°C for 30 min and detected on a Monolith NT.115 instrument. The data were analyzed by NanoTemper Analysis 1.2.20 software.

[2] = test system: exsA and effectors exoS, exoT, and exoU; assay: Expression of T3SS genes exsA, exoS, exoT, exoU; format: cell-based, P. aeruginosa; conditions: combined mutations of CprRS components and higB gene
Procedure: (§3) Overnight bacterial cultures were subcultured in fresh LB medium to OD600 0.8 and the cells were collected by using Trizol. The cDNA was synthesized by using PrimeScript RT reagent Kit. 2 × SYBR qPCR Master Mix was used to perform qPCR assays. The reaction step was 2 × SYBR qPCR Master Mix (Without ROX) 10 μL, upstream Primer (10 μM) 0.4 μL, downstream Primer (10 μM) 0.4 μL, template cDNA 1 μg and ddH2O up to 20 μL. The qPCR procedure was set as: stage 1 (95°C 30 s, repeat once), stage 2 (95°C 10 s, 60°C 30 s, repeat for 40 times) and stage 3 (95°C 15 s, 60°C 1 min, 95°C 15 s, repeat 1 time). The oprL gene was used as a normalizer. The same method was used for mammalian cells, and 18 sRNA served as a normalizer.

[3] = test system: RAW264.7 macrophages (TNF-α, IL-1β, IL-8, IL-12); assay: Pro-inflammatory cytokine levels in infected macrophages; format: cell-based; conditions: 18s RNA normalizer
Procedure: as §3

higB = assay: qPCR, higB mRNA; format: cell-based, P. aeruginosa
Procedure: as §3

cprR = assay: qRT-PCR, cprR transcription; format: cell-based, P. aeruginosa; conditions: oprL as normalizer
Procedure: as §3

cprS = assay: qRT-PCR, cprS transcription; format: cell-based, P. aeruginosa; conditions: oprL as normalizer
Procedure: as §3

[4] = test system: virulence sensor kinase CovS; conditions: group A streptococcus; cited from earlier work
Description: (§4) In the field of microbiology and immunology, the interaction between host antimicrobial peptides and pathogenic bacteria has been a subject of extensive research. The success of bacterial infections depends on a delicate balance of signals exchanged between microbes and hosts. Cationic antimicrobial peptides, including defensins such as α-defensins, β-defensins, and cathelicidin LL-37, are crucial components of innate host defense against bacterial infections. Numerous studies have shown that LL-37 acts as a shield between the host and the external environment, preventing bact ...

CarSR system = conditions: Vibrio cholerae; cited from earlier work
Description: as §4

pscDEFG operon = assay: Expression of pscDEFG operon; format: cell-based, P. aeruginosa
Procedure: as §3

P. aeruginosa ΔcprS = assay: Label-free quantitative proteomics of ΔcprS before and after LL-37; format: cell-based; conditions: PscE, PscH, PscJ, ExoT, PcrV, PcrH, PhzA2, PhzB2, PhzF1, FilF, PigA, HsbA; before vs after LL-37
Procedure: Protein was collected, reduced, and alkylated from WT, ΔcprS, ΔcprR, ΔcprSΔhigB, and ΔcprSΔhigB strains as reported. The total purified peptides were solubilized in 20 μL of 0.1% formic acid (FA, v/v) and the concentration was measured according to BCA assay.
About 2 μg samples were analyzed by orbitrap Fusion Lumos MS coupled online to an EASY-nLC 1200 system with a data-independent acquisition mode (DIA). The mobile phase used for the liquid chromatography consisted of buffer A (0.1% FA) and buffer B (80% acetonitrile, 0.1% FA). The peptides were separated using a 160-min nonlinear gradient consisting of 4–35% buffer B for 85 min, 35–100% buffer B for 60 min and 100% buffer B for 15 min at a flow rate of 300 nL min^−1. The acquired DIA data were analyzed by DIA-NN software against the protein database of P. aeruginosa PA14. Data processing was conducted using the software Perseus. Student’s t-test was used to assess the significance of differential expression of proteins (DEPs) between two groups. Proteins that have significance level of P < 0.05 and fold change >1.5 or <–1.5 were considered as DEPs.

Raw264.7 macrophages = assay: LDH release cytotoxicity assay of infected macrophages; format: cell-based; conditions: MOI of 10, LL-37-treated WT P. aeruginosa
Procedure: The Raw264.7 cells were infected with suspended bacteria at a multiplicity of infection (MOI) of 10 in antibiotic-free DMEM medium. Following incubation, the supernatant was collected and the presence of LDH was measured using the LDH cytotoxicity assay kit. The baseline level of LDH release (0% LDH release) was determined using DMEM medium. Cells treated with LDH release agent C0017-1 were used as a positive control for total release (100% LDH release). The percentage of cytotoxicity was calculated according to the instructions provided by the manufacturer.

arnBCADTEF operon = assay: Expression of arnBCADTEF operon; format: cell-based, P. aeruginosa
Procedure: as §3

higB promoter = assay: β-Galactosidase reporter, higB promoter in P. aeruginosa; format: cell-based
[5] = target: full-length CprS (CprSFL); assay: Microscale thermophoresis (MST), full-length CprS; format: binding, P. aeruginosa; conditions: 100 nM His-tag labelled CprSFL, 16 doubling dilutions from 500 μM peptide, PBST buffer, 25°C 30 min, Monolith NT.115, repeated three times, read-out: Kd (CprSFL + LL-37)
Procedure: as §1, §2

higA = assay: Expression of higA; format: cell-based, P. aeruginosa; conditions: WT and ΔcprR or ΔcprS mutants
Procedure: as §3

[6] = test system: CprRS as well as ParRS system; conditions: cited from earlier work
Description: Pseudomonas aeruginosa is a notorious opportunistic pathogen known for its ability to evade host immune defenses, particularly in resisting antimicrobial peptides (AMPs). […] One notable feature is the abundance and diversity of two-component systems (TCS) in P. aeruginosa, which play a crucial role in regulating its response to host and environmental stimuli, including ...

## LL-37
[1]
  Kd: 5.34 µM
[2]
  upregulation of T3SS in response to LL-37 stimulation: greatly attenuated
[3]; macrophages infected with WT strain pretreated with LL-37
  effect of LL-37 pretreatment on inhibition of pro-inflammatory cytokines: enhanced the ability of the WT strain to effectively inhibit the activation of pro-inflammatory cytokines
[3]; macrophages infected with ΔcprS and ΔcprR strains
  effect of LL-37 pretreatment on inhibition of pro-inflammatory cytokines: largely absent
higB; WT strain
  increase in higB mRNA levels upon LL-37 treatment: 8.79 fold
higB; ΔcprR mutant
  increase in higB mRNA levels upon LL-37 treatment: 2.12 fold
higB; ΔcprS mutant
  increase in higB mRNA levels upon LL-37 treatment: 2.74 fold
cprR
  increase in cprR transcription compared to control without LL-37: 2.2 fold
cprS
  increase in cprS transcription compared to control without LL-37: 2.5 fold
[4]
  activation of CovS: activated by LL-37
CarSR system
  sensing by CarSR: sense human enteric α-defensin 5 and LL-37 to promote bacterial pathogenicity
pscDEFG operon; WT strain
  expression of pscDEFG operon under LL-37: notably induced
pscDEFG operon; mutants
  expression of pscDEFG operon under LL-37: no such induction was observed
P. aeruginosa ΔcprS
  expression of virulence proteins in ΔcprS upon stimulation with LL-37: significant decrease in the expression of several proteins directly involved in virulence processes
Raw264.7 macrophages
  cytotoxicity of LL-37-treated WT strains compared to untreated group: increased cytotoxicity
arnBCADTEF operon; WT strain
  expression of arnBCADTEF operon under LL-37: markedly induced
arnBCADTEF operon; ΔcprR and ΔcprS mutants
  expression of arnBCADTEF operon under LL-37: this induction was not observed
higB promoter; WT
  induction of higB promoter by LL-37: significant positive induction activity on higB promoter
higB promoter; ΔcprR and ΔcprS mutants
  induction of higB promoter by LL-37: markedly reduced
[5]
  Kd: 1.41 µM
higA
  effect of LL-37 stimulation on expression of higA: limited effects on the expression of higA

## dynorphin
[6]
  stimulation of CprRS as well as ParRS by dynorphin: increased virulence factor production and adaptive resistance
